Assay results as given in patent publication US7304061B2, “Heterocyclic inhibitors of ERK2 and uses thereof” (Vertex Pharmaceuticals Incorporated, priority 2002, dated 2007).

Biological target: ERK2 (Homo sapiens, UniProt P28482)
Test: ERK2 inhibition assay (spectrophotometric coupled-enzyme assay)
Assay type: biochemical
Settings: activated ERK2 10 nM, 65 μM ATP, 200 μM erktide peptide, 30° C., pH 7.5
Description: Compounds were assayed for the inhibition of ERK2 by a spectrophotometric coupled-enzyme assay (Fox et al (1998) Protein Sci 7, 2249). In this assay, a fixed concentration of activated ERK2 (10 nM) was incubated with various concentrations of the compound in DMSO (2.5%) for 10 min. at 30° C. in 0.1 M HEPES buffer, pH 7.5, containing 10 mM MgCl2, 2.5 mM phosphoenolpyruvate, 200 μM NADH, 150 μg/mL pyruvate kinase, 50 μg/mL lactate dehydrogenase, and 200 μM erktide peptide. The reaction was initiated by the addition of 65 μM ATP. The rate of decrease of absorbance at 340 nm was monitored. The Ki and IC50 were evaluated from the rate data as a function of inhibitor concentration.

Sequence of ERK2 (P28482 whole entry, species assumed): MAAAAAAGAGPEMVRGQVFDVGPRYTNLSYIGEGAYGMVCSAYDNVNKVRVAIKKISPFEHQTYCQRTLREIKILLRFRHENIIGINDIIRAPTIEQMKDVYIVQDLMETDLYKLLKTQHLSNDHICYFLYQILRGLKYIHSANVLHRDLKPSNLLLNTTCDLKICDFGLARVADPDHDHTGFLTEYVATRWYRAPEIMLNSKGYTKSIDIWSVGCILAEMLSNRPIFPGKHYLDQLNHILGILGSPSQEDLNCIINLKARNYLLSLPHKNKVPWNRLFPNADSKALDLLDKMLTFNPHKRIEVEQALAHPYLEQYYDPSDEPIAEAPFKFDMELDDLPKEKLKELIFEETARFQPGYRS

With CCOc1ncc(C)c(-c2c[nH]c(C(=O)N[C@H](CO)c3ccccc3)c2)n1 [Compound I-22, 4-(5-methyl-2-ethoxy-pyrimidin-4-yl)-1H-pyrrole-2 carboxylic acid (2-hydroxy-1-(S)-phenyl-ethyl)-amide] the Ki was less than 0.1 µM.

Compound Cc1cnc(-c2ccccc2)nc1-c1c[nH]c(C(=O)N[C@H](CO)c2ccccc2)c1 [Compound I-24, 4-(5-Methyl-2-phenyl-pyrimidin-4-yl)-1H-pyrrole-2 carboxylic acid (2-hydroxy-1-(S)-phenyl-ethyl)-amide] has a Ki of less than 0.1 µM.
